# Results from patent publication US12564596B2, “Agents and methods for modulating pathogen activity” (Griffith University, priority 2018, dated 2026).
# System: N. gonorrhoeae in infected PEX cells
# Assay: Survival assay of N. gonorrhoeae in infected PEX cells
# Assay type: cell-based, Neisseria gonorrhoeae
# Source text: N. gonorrhoeae strains used in survival assays included MS11 Schoolnik et al (1984, supra), Segal et al (1985, supra) and 1291 Apicella et al (1974, J. Infect Dis. 130(6):619-25), Dudas and Apicella (1988, Infect Immun. 56(2):499-504), which are commonly used to study gonococcal pathogenesis. Also examined were a panel of low-passage clinical isolates (FIG. 14; i.e., N. gonorrhoeae strains LT38097, UT38885, PID-26, and SK92-679). Strains 1291 and LT38097 are male urethral isolates; strains MS11 and UT38885 were obtained from women with uncomplicated gonococcal cervicitis, strain PID-26 was obtained from a patient with pelvic inflammatory disease; and strain SK92-679 is a blood isolate from a patient with disseminated infection. Antibiotic-resistant N. gonorrhoeae strains tested were obtained from Public Health England and comprised WHO-L, WHO-M, WHO-X (H041), WHO-Y (F89), and WHO-Z (A8806), see FIG. 15. For use, bacteria were harvested from overnight (37° C., 5% CO2), GC-IsoVitaleX agar plate cultures and enumerated spectrophotometrically, as previously described Edwards et al (2000, Infect Immun 68(9):5354-63). Infection studies were performed using a multiplicity of infection of 100 Edwards et al (2000, Infect Immun 68(9):5354-63).
# PEX cells were challenged with the noted N. gonorrhoeae strains for 90 min. For single dose survival assays, the infection medium was then removed, cells were rinsed thrice, and fresh medium containing 1% DMSO (vehicle control), carbamazepine ([…], as noted), or ceftriaxone (0.1 μg/mL or 0.5 μg/mL, positive control) was added. Infections were then allowed to proceed for an additional 24 h or 48 h. At the indicated times post-treatment, the infection medium was removed, the PEX cell monolayers were rinsed thrice, lysed, and viable N. gonorrhoeae were enumerated by counting colony forming units after plating serial dilutions of the PEX cell lysates (for example see 12). In some experiments (i.e., two dose survival assays for example see FIG. 13), a second dose of carbamazepine was added at 24 hours-post addition of the first carbamazepine dose. Infections were then allowed to proceed for an additional 24 h before plating the PEX cell lysate, as above. For either assay, the percentage of N. gonorrhoeae that survived carbamazepine or antibiotic treatment was determined as a function of bacteria that survived DMSO (vehicle control) treatment (set to 100%). […] To investigate whether the small percentage of the surviving bacterial cells have developed resistance to the treatment, sequential infection assays were conducted. Bacteria were harvested from the CFU count plates and then used to inoculate a new assay. […] All assays were performed in triplicate on 3 separate occasions with the noted bacterial strains. A Kruskal-Wallis k-sample analysis of variance was used to determine the statistical significance of bacterial survival.
# The ability of a single dose of methyldopa was evaluated to inhibit survival of low-passage N. gonorrhoeae isolates in PEX cells challenged with those isolates. To establish infection, PEX cells were challenged with N. gonorrhoeae for 90 min using the noted low-passage isolates. Infections were then allowed to proceed for an additional 24 h or 48 h in the presence or absence of DMSO (1%, vehicle control), methyldopa (10 μM, Md), or ceftriaxone (0.5 μg/mL, positive control, Cfx).
compound,measurement,setting,value
"NC(=O)N1c2ccccc2C=Cc2ccccc21 [carbamazepine, 5H-dibenzo[b,f]azepine-5-carboxamide]",killing of gonococci,"by 24 hours, concentrations of 10 μM or higher",greater than 99.95%
same,gonococcal killing,"low-passage isolates, 24 h, 10 μM single dose",Greater than 99%
same,gonococcal killing,"multidrug-resistant strains, 24 h, 10 μM single dose",Greater than 99%
same,gonococcal killing,"strain MS11, by 24 h, single 100 nM dose",Greater than 99%
same,gonococcal killing,"strain MS11, by 48 h, 2 100 nM doses applied 24 h apart",greater than 99.95%
same,gonococcal killing,"strain MS11, concentrations greater than or equal to 10 nM, 24 h or 48 h",Greater than 98%
same,gonococcal killing,"strain MS11, sequential infection, following the second infection, 10 μM, 24 h",100%
